# Patent publication US12268777B2, “Compositions and methods for treating eosinophilic disorders” (The Regents of the University of California, priority 2019, dated 2025)
# Legend:
# [1] = tested on: EoE-derived primary esophageal fibroblasts; assay: Western immunoblot of pro-fibrotic protein expression in EoE-derived esophageal fibroblasts; assay type: cell-based, human
# Description: Reagents, human esophageal tissues, and primary human esophageal fibroblast isolation TGF-β1 (5 ng/mL; R&D Systems, Minneapolis, MN), rosiglitazone (20 μM; Abcam, Boston, MA), pioglitazone (20 μM; Sigma-Aldrich, St. Louis, MO), budesonide (0.1 μM; St. Louis, MO), and IL-4 (10 ng/mL; R&D Systems, Minneapolis, MN) were used in cell culture experiments. […] Active EoE was defined as greater than or equal to 15 eosinophils per hpf. Human organ transplant donor esophagi served as normal controls and were provided by the National Disease Research Interchange and the Arkansas Regional Organ Recovery Agency Control. […]
# Adherent cells were washed with ice-cold phosphate-buffered saline containing 1 mM sodium orthovanadate (Na3VO4) and lysed in ice-cold RIPA lysis buffer freshly prepared and supplemented with 1 mM Na3VO4, complete protease inhibitor cocktail, and 2 mM phenylmethylsulfonyl fluoride. […] Equivalent amounts of total proteins were loaded into each well and electrophoresed on NuPAGE 4-12% Bis-Tris gels (Life Technologies, Grand Island, NY), transferred to polyvinylidene difluoride membranes, blocked with 5% bovine serum albumin, incubated with primary antibodies overnight (1:1,000) at 4° C., detected using species-appropriate horseradish peroxidase-conjugated secondary antibodies, and quantified as previously described (Rawson et al., J. Allergy Clin. Immunol., 138:791-800, 2016).
# [2] = in vivo; cited from earlier work
# [3] = tested on: EoE-derived primary esophageal fibroblasts; assay: qPCR of pro-fibrotic gene expression in EoE-derived esophageal fibroblasts stimulated with TGF-β1; details: at the concentrations used, up to 20 μM
# Description: Reagents, human esophageal tissues, and primary human esophageal fibroblast isolation TGF-β1 (5 ng/mL; R&D Systems, Minneapolis, MN), rosiglitazone (20 μM; Abcam, Boston, MA), pioglitazone (20 μM; Sigma-Aldrich, St. Louis, MO), budesonide (0.1 μM; St. Louis, MO), and IL-4 (10 ng/mL; R&D Systems, Minneapolis, MN) were used in cell culture experiments.
# Cell culture and stimulation. Human esophageal fibroblast cells were matched as closely as possible for sex, race, and passage. At sub-confluence, cells were serum starved overnight and treated with a TZD, budesonide, a combination, or vehicle for 2-3 hours followed by incubation with TGF-β1 or vehicle.
# Preparation of total RNA and cDNA and quantitative PCR. Total RNA from fibroblast cultures was extracted using RNA STAT-60 (Tel-Test, Inc., Friendswood, TX) protocol, and oligo(dT)-primed cDNA was synthesized as previously described using the Qiagen RT-PCR kit and manufacturer's instructions. Quantitative real-time PCR (qPCR) primers are listed in Table 3; qPCR was carried out as previously described using the appropriate gene-specific primers, and relative gene expression was calculated using the method, with glyceraldehyde 3-phosphate dehydrogenase (gapdh) as the housekeeping gene (Rawson et al., J. Allergy Clin. Immunol., 138:791-800, 2016).
# [4] = tested on: normal esophageal fibroblasts; assay: Western immunoblot of pro-fibrotic protein expression in normal esophageal fibroblasts; assay type: cell-based, human; details: 20 μM, N=3
# Description: Cell culture and stimulation.
# Western immunoblot analysis. Adherent cells were washed with ice-cold phosphate-buffered saline containing 1 mM sodium orthovanadate (Na3VO4) and lysed in ice-cold RIPA lysis buffer freshly prepared and supplemented with 1 mM Na3VO4, complete protease inhibitor cocktail, and 2 mM phenylmethylsulfonyl fluoride. Whole cell lysates were centrifuged at 14,000 g for 15 minutes at 4° C.
# [5] = tested on: nonalcoholic steatohepatitis (NASH); details: compared to placebo; cited from earlier work
smiles,measurement,setting,value
CN(CCOc1ccc(CC2SC(=O)NC2=O)cc1)c1ccccn1 (stereo not drawn) [rosiglitazone],basal protein expression of α-sma,"[1]; EoE fibroblasts, 20 μM",did not inhibit
same,cardiac effect,[2],myocardial infarction risk was subsequently disproven
same,"toxicity (housekeeper gene expression, responses in normal fibroblasts)",[3],not due to toxicity
same,TGF-β1-induced protein expression of collagen-1α1,[4],did not inhibit
same,TGF-β1-induced protein expression of α-sma,[4],did not inhibit
CCc1ccc(CCOc2ccc(CC3SC(=O)NC3=O)cc2)nc1 (stereo not drawn) [pioglitazone],cardiac effect,[2],cardioprotective effect
same,drug-related adverse events,[5],no major drug-related adverse events
same,tolerability,[5],well tolerated
"CCCC1O[C@@H]2C[C@H]3[C@@H]4CCC5=CC(=O)C=C[C@]5(C)[C@H]4[C@@H](O)C[C@]3(C)[C@]2(C(=O)CO)O1 (stereo partly drawn) [budesonide, 16,17-(butylidenebis(oxy))-11,21-dihydroxy-, (11-β,16-α)-pregna-1,4-diene-3,20-dione]",TGFβ1-induced protein expression of collagen-1α1,"[1]; EoE fibroblasts from 2 patients, budesonide 0.1 μM",no effects
